Publication PMC12155096 (International Journal of Molecular Sciences, 2025)

Biological target: T1, human CYP1A2 (Homo sapiens, UniProt P05177)
T1 sequence (P05177 1-516): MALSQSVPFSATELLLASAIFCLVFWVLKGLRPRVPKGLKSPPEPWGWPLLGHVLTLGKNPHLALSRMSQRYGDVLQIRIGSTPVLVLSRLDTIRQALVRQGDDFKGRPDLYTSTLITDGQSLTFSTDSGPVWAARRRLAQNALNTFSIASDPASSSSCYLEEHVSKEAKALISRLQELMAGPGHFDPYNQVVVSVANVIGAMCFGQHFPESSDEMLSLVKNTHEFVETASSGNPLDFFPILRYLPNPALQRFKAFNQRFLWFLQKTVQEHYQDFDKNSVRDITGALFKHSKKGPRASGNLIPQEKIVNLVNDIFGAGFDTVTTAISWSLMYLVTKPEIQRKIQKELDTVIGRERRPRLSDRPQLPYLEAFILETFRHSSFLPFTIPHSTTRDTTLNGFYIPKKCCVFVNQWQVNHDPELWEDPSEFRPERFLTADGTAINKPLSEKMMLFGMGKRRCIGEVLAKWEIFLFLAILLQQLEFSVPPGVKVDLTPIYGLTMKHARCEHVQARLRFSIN
Assay: biochemical
Details: CYP1A2 AC50 (half-maximal activity concentration)

Point of comparison: O=CC(Br)(Br)Br [Tribromoacetaldehyde], AC50 29.6 µM. Against it:
- CC(=O)c1ccc2ccccc2c1 [2'-Acetonaphthone] — 3.2-fold lower, 9.34 µM
- COC(=O)COc1ccc(Cl)cc1Cl [2,4-D-methyl] — 1.9-fold lower, 15.4 µM
- N#Cc1cc(I)c(O)c(I)c1 [Ioxynil] — 1.6-fold higher, 46.2 µM
- CNC(=O)Oc1ccccc1C(C)C [Isoprocarb] — within 1.5-fold, 35.6 µM
- O=C(NC(=O)c1c(F)cccc1F)Nc1cc(Cl)c(OC(F)(F)C(F)C(F)(F)F)cc1Cl (stereo not shown) [Lufenuron] — within 1.5-fold, 35.7 µM
- CCCCCC1C(=O)CCC1CC(=O)OC (stereo not shown) [Methyl dihydrojasmonate] — within 1.5-fold, 27.2 µM
- BrC(Br)C(Br)(Br)Br [Pentabromoethane] — within 1.5-fold, 33.2 µM
- Clc1nc(Cl)c(Cl)c(Cl)c1Cl [Pentachloropyridine] — within 1.5-fold, 41.8 µM
- CSc1nc(NC(C)C)nc(NC(C)C)n1 [Prometryn] — 1.7-fold lower, 17.3 µM
- CC(C)(C)c1ccc(CSc2cnn(C(C)(C)C)c(=O)c2Cl)cc1 [Pyridaben] — within 1.5-fold, 25.6 µM
- CC(COc1ccc(Oc2ccccc2)cc1)Oc1ccccn1 (stereo not shown) [Pyriproxyfen] — 1.7-fold lower, 17.3 µM
- O=C(NC(=O)c1c(F)cccc1F)Nc1cc(Cl)c(F)c(Cl)c1F [Teflubenzuron] — within 1.5-fold, 32.5 µM
- CCNc1nc(NC(C)(C)C)nc(SC)n1 [Terbutryn] — 3.8-fold lower, 7.74 µM
- IC(I)=C(I)I [Tetraiodoethene] — 2.3-fold lower, 13 µM
- O=P(Oc1ccccc1)(Oc1ccccc1)Oc1ccccc1 [Triphenyl phosphate] — 2.7-fold lower, 10.8 µM
- c1ccc(-c2ccccc2-c2ccccc2)cc1 [o-Terphenyl] — 10-fold lower, 2.91 µM

Biological target: CYP3A4 (Homo sapiens, UniProt P08684)
Assay: biochemical
Details: CYP3A4 AC50 (half-maximal activity concentration)

CYP3A4, sequence (P08684 whole entry): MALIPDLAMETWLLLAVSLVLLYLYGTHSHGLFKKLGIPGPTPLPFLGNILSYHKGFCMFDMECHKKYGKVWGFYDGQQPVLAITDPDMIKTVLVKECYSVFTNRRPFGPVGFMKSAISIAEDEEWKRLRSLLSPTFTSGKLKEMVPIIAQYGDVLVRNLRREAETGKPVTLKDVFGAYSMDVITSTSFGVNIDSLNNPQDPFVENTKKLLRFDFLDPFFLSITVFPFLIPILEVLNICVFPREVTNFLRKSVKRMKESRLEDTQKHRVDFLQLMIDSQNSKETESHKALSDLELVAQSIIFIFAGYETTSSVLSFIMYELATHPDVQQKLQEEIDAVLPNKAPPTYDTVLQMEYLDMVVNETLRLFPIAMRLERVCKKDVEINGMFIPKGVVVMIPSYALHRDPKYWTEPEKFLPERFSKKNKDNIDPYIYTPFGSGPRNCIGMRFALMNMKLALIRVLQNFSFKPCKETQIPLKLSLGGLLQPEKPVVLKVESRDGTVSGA

Point of comparison: IC(I)=C(I)I [Tetraiodoethene], AC50 19.5 µM. Against it:
- CC(=O)c1ccc2ccccc2c1 [2'-Acetonaphthone] — 1.8-fold higher, 34.4 µM
- COC(=O)COc1ccc(Cl)cc1Cl [2,4-D-methyl] — 2.3-fold higher, 44 µM
- N#Cc1cc(I)c(O)c(I)c1 [Ioxynil] — 2-fold higher, 38.5 µM
- CNC(=O)Oc1ccccc1C(C)C [Isoprocarb] — 2.5-fold higher, 49.3 µM
- O=C(NC(=O)c1c(F)cccc1F)Nc1cc(Cl)c(OC(F)(F)C(F)C(F)(F)F)cc1Cl (stereo not shown) [Lufenuron] — 2.6-fold lower, 7.45 µM
- CCCCCC1C(=O)CCC1CC(=O)OC (stereo not shown) [Methyl dihydrojasmonate] — 2.2-fold lower, 8.73 µM
- BrC(Br)C(Br)(Br)Br [Pentabromoethane] — within 1.5-fold, 16.1 µM
- Clc1nc(Cl)c(Cl)c(Cl)c1Cl [Pentachloropyridine] — 2.3-fold lower, 8.61 µM
- CSc1nc(NC(C)C)nc(NC(C)C)n1 [Prometryn] — within 1.5-fold, 29.1 µM
- CC(C)(C)c1ccc(CSc2cnn(C(C)(C)C)c(=O)c2Cl)cc1 [Pyridaben] — 4.1-fold lower, 4.7 µM
- CC(COc1ccc(Oc2ccccc2)cc1)Oc1ccccn1 (stereo not shown) [Pyriproxyfen] — 1.5-fold higher, 29.7 µM
- O=C(NC(=O)c1c(F)cccc1F)Nc1cc(Cl)c(F)c(Cl)c1F [Teflubenzuron] — 3-fold higher, 57.7 µM
- CCNc1nc(NC(C)(C)C)nc(SC)n1 [Terbutryn] — 1.7-fold lower, 11.5 µM
- O=CC(Br)(Br)Br [Tribromoacetaldehyde] — 1.9-fold lower, 10.2 µM
- O=P(Oc1ccccc1)(Oc1ccccc1)Oc1ccccc1 [Triphenyl phosphate] — 3-fold lower, 6.42 µM
- c1ccc(-c2ccccc2-c2ccccc2)cc1 [o-Terphenyl] — within 1.5-fold, 24.7 µM

Biological target: T2, human CYP2C9 (Homo sapiens, UniProt P11712)
Assay: biochemical
Details: CYP2C9 AC50 (half-maximal activity concentration)

T2 sequence (P11712 whole entry): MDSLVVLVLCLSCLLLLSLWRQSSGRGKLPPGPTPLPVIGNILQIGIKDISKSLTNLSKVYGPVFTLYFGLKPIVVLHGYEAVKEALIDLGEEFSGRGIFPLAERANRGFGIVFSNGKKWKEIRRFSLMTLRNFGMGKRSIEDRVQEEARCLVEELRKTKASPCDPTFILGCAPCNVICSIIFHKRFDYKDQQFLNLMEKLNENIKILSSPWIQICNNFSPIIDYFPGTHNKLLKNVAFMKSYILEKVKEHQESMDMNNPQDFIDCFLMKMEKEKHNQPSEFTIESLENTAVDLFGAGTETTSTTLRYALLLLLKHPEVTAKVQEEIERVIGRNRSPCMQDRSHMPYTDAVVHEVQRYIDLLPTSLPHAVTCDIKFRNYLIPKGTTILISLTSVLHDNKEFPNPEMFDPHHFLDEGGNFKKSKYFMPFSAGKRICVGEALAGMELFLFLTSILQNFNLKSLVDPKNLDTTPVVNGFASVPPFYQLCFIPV

Point of comparison: O=C(NC(=O)c1c(F)cccc1F)Nc1cc(Cl)c(F)c(Cl)c1F [Teflubenzuron], AC50 46.5 µM. Against it:
- N#Cc1cc(I)c(O)c(I)c1 [Ioxynil] — 2.1-fold lower, 22.4 µM
- O=C(NC(=O)c1c(F)cccc1F)Nc1cc(Cl)c(OC(F)(F)C(F)C(F)(F)F)cc1Cl (stereo not shown) [Lufenuron] — 4.1-fold lower, 11.3 µM
- CCCCCC1C(=O)CCC1CC(=O)OC (stereo not shown) [Methyl dihydrojasmonate] — 1.6-fold lower, 28.4 µM
- BrC(Br)C(Br)(Br)Br [Pentabromoethane] — 2-fold lower, 22.7 µM
- Clc1nc(Cl)c(Cl)c(Cl)c1Cl [Pentachloropyridine] — within 1.5-fold, 62.4 µM
- CSc1nc(NC(C)C)nc(NC(C)C)n1 [Prometryn] — within 1.5-fold, 58.2 µM
- CC(C)(C)c1ccc(CSc2cnn(C(C)(C)C)c(=O)c2Cl)cc1 [Pyridaben] — 6.5-fold lower, 7.2 µM
- CC(COc1ccc(Oc2ccccc2)cc1)Oc1ccccn1 (stereo not shown) [Pyriproxyfen] — 3.9-fold lower, 12 µM
- IC(I)=C(I)I [Tetraiodoethene] — 13-fold lower, 3.57 µM
- O=CC(Br)(Br)Br [Tribromoacetaldehyde] — 2.5-fold lower, 18.4 µM
- O=P(Oc1ccccc1)(Oc1ccccc1)Oc1ccccc1 [Triphenyl phosphate] — 6.8-fold lower, 6.87 µM
- c1ccc(-c2ccccc2-c2ccccc2)cc1 [o-Terphenyl] — 1.8-fold lower, 26.5 µM

Biological target: human CYP2D6 (Homo sapiens, UniProt P10635)
Assay: not given
Details: not given

human CYP2D6, sequence (P10635 whole entry): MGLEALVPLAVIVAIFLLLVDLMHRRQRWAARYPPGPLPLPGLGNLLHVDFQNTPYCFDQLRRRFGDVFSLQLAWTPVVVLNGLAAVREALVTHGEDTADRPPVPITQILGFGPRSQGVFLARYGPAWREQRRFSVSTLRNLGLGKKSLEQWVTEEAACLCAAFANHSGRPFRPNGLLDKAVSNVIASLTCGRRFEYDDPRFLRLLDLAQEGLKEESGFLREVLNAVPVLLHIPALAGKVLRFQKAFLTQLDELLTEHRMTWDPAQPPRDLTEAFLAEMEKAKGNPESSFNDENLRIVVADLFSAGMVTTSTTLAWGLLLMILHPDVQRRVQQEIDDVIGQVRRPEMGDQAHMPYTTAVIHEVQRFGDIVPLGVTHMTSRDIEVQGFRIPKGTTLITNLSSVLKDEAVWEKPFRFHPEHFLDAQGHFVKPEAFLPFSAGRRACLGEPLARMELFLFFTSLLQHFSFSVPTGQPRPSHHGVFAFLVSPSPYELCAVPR

For CC(=O)c1ccc2ccccc2c1 [2'-Acetonaphthone], the “CYP2D6 AC50 (half-maximal activity concentration)” value (from here on “CYP2D6 AC50”) was “Inconclusive inhibitor”.
In the case of COC(=O)COc1ccc(Cl)cc1Cl [2,4-D-methyl], the “CYP2D6 AC50” value is reported as “Inactive”.
For N#Cc1cc(I)c(O)c(I)c1 [Ioxynil], the “CYP2D6 AC50” value was “Inactive”.
CNC(=O)Oc1ccccc1C(C)C [Isoprocarb] was tested, and the “CYP2D6 AC50” value was “Inactive”.
O=C(NC(=O)c1c(F)cccc1F)Nc1cc(Cl)c(OC(F)(F)C(F)C(F)(F)F)cc1Cl (stereo not shown) [Lufenuron] was tested, and the “CYP2D6 AC50” value was “Inactive”.
For CCCCCC1C(=O)CCC1CC(=O)OC (stereo not shown) [Methyl dihydrojasmonate], the “CYP2D6 AC50” value was “Inconclusive inhibitor”.
BrC(Br)C(Br)(Br)Br [Pentabromoethane] was tested, and the “CYP2D6 AC50” value was “Inconclusive inhibitor”.
In the case of Clc1nc(Cl)c(Cl)c(Cl)c1Cl [Pentachloropyridine], the “CYP2D6 AC50” value is reported as “Inactive”.
In the case of CSc1nc(NC(C)C)nc(NC(C)C)n1 [Prometryn], the “CYP2D6 AC50” value is reported as “Inactive”.
In the case of CC(C)(C)c1ccc(CSc2cnn(C(C)(C)C)c(=O)c2Cl)cc1 [Pyridaben], the “CYP2D6 AC50” value is reported as “Inactive”.
In the case of CC(COc1ccc(Oc2ccccc2)cc1)Oc1ccccn1 (stereo not shown) [Pyriproxyfen], the “CYP2D6 AC50” value is reported as “Inactive”.
O=C(NC(=O)c1c(F)cccc1F)Nc1cc(Cl)c(F)c(Cl)c1F [Teflubenzuron] was tested, and the “CYP2D6 AC50” value was “Inactive”.
For CCNc1nc(NC(C)(C)C)nc(SC)n1 [Terbutryn], the “CYP2D6 AC50” value was “Inactive”.
With IC(I)=C(I)I [Tetraiodoethene] the “CYP2D6 AC50” value was “Inactive”.
With O=CC(Br)(Br)Br [Tribromoacetaldehyde] the “CYP2D6 AC50” value was “Inconclusive inhibitor”.
O=P(Oc1ccccc1)(Oc1ccccc1)Oc1ccccc1 [Triphenyl phosphate] was tested, and the “CYP2D6 AC50” value was “Inactive”.
With c1ccc(-c2ccccc2-c2ccccc2)cc1 [o-Terphenyl] the “CYP2D6 AC50” value was “Inactive”.

Biological target: human CYP2C19 (Homo sapiens, UniProt P33261)
Assay: biochemical
Details: CYP2C19 AC50 (half-maximal activity concentration)

human CYP2C19, sequence (P33261 whole entry): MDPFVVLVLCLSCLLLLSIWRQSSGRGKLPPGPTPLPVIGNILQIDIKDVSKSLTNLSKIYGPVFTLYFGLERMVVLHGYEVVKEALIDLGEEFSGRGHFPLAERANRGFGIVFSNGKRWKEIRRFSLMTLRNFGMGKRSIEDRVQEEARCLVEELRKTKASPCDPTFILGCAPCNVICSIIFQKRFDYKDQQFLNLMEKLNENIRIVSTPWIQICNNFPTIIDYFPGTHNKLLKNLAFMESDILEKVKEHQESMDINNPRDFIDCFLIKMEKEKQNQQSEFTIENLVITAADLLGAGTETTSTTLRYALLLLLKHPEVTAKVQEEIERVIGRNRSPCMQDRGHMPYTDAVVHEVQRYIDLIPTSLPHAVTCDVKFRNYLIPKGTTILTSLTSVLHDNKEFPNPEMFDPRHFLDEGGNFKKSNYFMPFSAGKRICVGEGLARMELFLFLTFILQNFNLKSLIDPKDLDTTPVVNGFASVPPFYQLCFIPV

Point of comparison: BrC(Br)C(Br)(Br)Br [Pentabromoethane], AC50 48.6 µM. Against it:
- CC(=O)c1ccc2ccccc2c1 [2'-Acetonaphthone] — within 1.5-fold, 45 µM
- COC(=O)COc1ccc(Cl)cc1Cl [2,4-D-methyl] — within 1.5-fold, 71.9 µM
- N#Cc1cc(I)c(O)c(I)c1 [Ioxynil] — 1.7-fold higher, 83.2 µM
- CNC(=O)Oc1ccccc1C(C)C [Isoprocarb] — within 1.5-fold, 63.5 µM
- O=C(NC(=O)c1c(F)cccc1F)Nc1cc(Cl)c(OC(F)(F)C(F)C(F)(F)F)cc1Cl (stereo not shown) [Lufenuron] — 4.5-fold lower, 10.9 µM
- CCCCCC1C(=O)CCC1CC(=O)OC (stereo not shown) [Methyl dihydrojasmonate] — 19-fold lower, 2.53 µM
- Clc1nc(Cl)c(Cl)c(Cl)c1Cl [Pentachloropyridine] — within 1.5-fold, 61.1 µM
- CSc1nc(NC(C)C)nc(NC(C)C)n1 [Prometryn] — within 1.5-fold, 71 µM
- CC(C)(C)c1ccc(CSc2cnn(C(C)(C)C)c(=O)c2Cl)cc1 [Pyridaben] — 5.9-fold lower, 8.29 µM
- CC(COc1ccc(Oc2ccccc2)cc1)Oc1ccccn1 (stereo not shown) [Pyriproxyfen] — 3.9-fold lower, 12.4 µM
- O=C(NC(=O)c1c(F)cccc1F)Nc1cc(Cl)c(F)c(Cl)c1F [Teflubenzuron] — within 1.5-fold, 69.2 µM
- CCNc1nc(NC(C)(C)C)nc(SC)n1 [Terbutryn] — within 1.5-fold, 39.6 µM
- IC(I)=C(I)I [Tetraiodoethene] — 5.3-fold lower, 9.09 µM
- O=CC(Br)(Br)Br [Tribromoacetaldehyde] — within 1.5-fold, 53.3 µM
- O=P(Oc1ccccc1)(Oc1ccccc1)Oc1ccccc1 [Triphenyl phosphate] — 7.4-fold lower, 6.53 µM
- c1ccc(-c2ccccc2-c2ccccc2)cc1 [o-Terphenyl] — 3.1-fold lower, 15.9 µM

Biological target: T2, human CYP2C9
Assay: not given
Details: not given

With CC(=O)c1ccc2ccccc2c1 [2'-Acetonaphthone] the “CYP2C9 AC50 (half-maximal activity concentration)” value (from here on “CYP2C9 AC50”) was “Inactive”.
For COC(=O)COc1ccc(Cl)cc1Cl [2,4-D-methyl], the “CYP2C9 AC50” value was “Inactive”.
For CNC(=O)Oc1ccccc1C(C)C [Isoprocarb], the “CYP2C9 AC50” value was “Inconclusive inhibitor”.
In the case of CCNc1nc(NC(C)(C)C)nc(SC)n1 [Terbutryn], the “CYP2C9 AC50” value is reported as “Inconclusive activator”.
